In experiment [1] the target is T1, HLA-DR1 (DRB1*0101) (Homo sapiens, UniProt P01903+P01911, A100R/D57E/F55L/F60I/F76Y/I96L/L162R/M171V/P40L/Q125E/R42F/V115G/Y59C).
T1 construct: endogenous in cells; host or cells: homozygous EBV-transformed human B lymphocyte lines; immunopurified with antibody L243
Briefly: biochemical. Format: binding. The settings on record: for IC50: DRB1*0101.

Experiment [2] has as its target T2, HLA-DR3 (DRB1*0301) (Homo sapiens, UniProt P01903+P01911, A100K/A102G/A103R/A169T/F55Y/I96L/K41T/L162R/M171V/P40S/Q125H/Q178H/Q39Y/R42S/S66N/T106N/T262R/W38E/Y61H).
T2 construct: endogenous in cells; host or cells: homozygous EBV-transformed human B lymphocyte lines; immunopurified with antibody L243
In words: biochemical. It counts as binding. The settings on record: read-out: binds with good affinity to DR3.

In experiment [3] the target is T3, HLA-DR4 (DRB1*0401) (Homo sapiens, UniProt P01903+P01911, A100K/A169T/F76Y/I96L/K127E/L162R/M171V/N62H/P40V/Q125Y/R42H/S133A/S149N/S66Y/V115G/V209L/W38E).
T3 construct: endogenous in cells; host or cells: homozygous EBV-transformed human B lymphocyte lines; immunopurified with antibody L243
Briefly: biochemical. The settings on record: read-out: binds with good affinity to DR4. It counts as binding.

Experiment [4] deals with HLA-DR7 (DRB1*0701) (Homo sapiens, UniProt P01903+P01911, A100R/A102G/A103Q/D57E/D86V/E43K/F76Y/K127E/L162R/M171V/P40G/Q125H/Q99D/R33Q/R42Y/R54Q/S133A/S66F/T210M/V115G/Y107V/Y59L/Y89S). Briefly: biochemical. It counts as binding. The settings on record: read-out: binds with good affinity to DR7.
The target of experiment [5] is HLA-DR11 (DRB1*1101) (Homo sapiens, UniProt P01903+P01911, A100R/A169T/A87E/I96F/K41T/L162R/M171V/P40S/Q125H/Q178H/Q39Y/Q99D/R42S/S66Y/T262R/V115G/W38E). Briefly: biochemical. It counts as binding. The settings on record: read-out: binds with good affinity to DR11.
Sequence of HLA-DR11 (DRB1*1101) (P01903 26-254 limits assumed, other chains not shown): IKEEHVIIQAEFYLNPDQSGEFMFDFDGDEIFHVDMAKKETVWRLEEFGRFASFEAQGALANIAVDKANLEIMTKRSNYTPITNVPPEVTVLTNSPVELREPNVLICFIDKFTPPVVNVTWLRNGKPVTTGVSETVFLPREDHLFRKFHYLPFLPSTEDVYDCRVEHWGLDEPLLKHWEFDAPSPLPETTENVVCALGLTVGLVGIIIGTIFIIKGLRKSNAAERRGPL
Experiment [6] has as its target HLA-DR13 (DRB1*1301) (Homo sapiens, UniProt P01903+P01911, A100E/A169T/K41T/L162R/M171V/P40S/Q125H/Q178H/Q39Y/Q99D/R42S/S66N/T262R/W38E/Y61H). Briefly: biochemical. Format: binding. The settings on record: read-out: binds with good affinity to DR13.
Experiment [7] deals with T4, HLA-DR15 (DRB1*1501) (Homo sapiens, UniProt P01903+P01911).
T4 construct: endogenous in cells; host or cells: homozygous EBV-transformed human B lymphocyte lines; immunopurified with antibody L243
Briefly: biochemical. It counts as binding. Particulars: DRB1*1501; read-out: binds with good affinity to DR15.

Experiment [8] concerns the target T5, HLA-DRB4 (DRB4*0101) (Homo sapiens, UniProt P01903+P13762, G164S).
T5 construct: endogenous in cells; host or cells: homozygous EBV-transformed human B lymphocyte lines; immunopurified with antibody L243
Briefly: biochemical. Format: binding. The settings on record: read-out: binds with good affinity to DRB4.

Experiment [9] has as its target T6, HLA-DRB5 (DRB5*0101) (Homo sapiens, UniProt P01903+Q30154).
T6 construct: endogenous in cells; host or cells: homozygous EBV-transformed human B lymphocyte lines; immunopurified with antibody L243
In words: biochemical. It counts as binding. Particulars: read-out: binds with good affinity to DRB5.

For experiment [10], the target named is HLA-DP402 (DPB1*0402) (Homo sapiens, UniProt P04440+P20036, A65V/A84D/A85E/L207M). Briefly: biochemical. The settings on record: DP*0402; read-out: binds with good affinity to DP402. It counts as binding.
Experiment [11] relates to T lymphocytes derived from PBMCs from patients chronically infected with HCV. Format: cell-based, human. The settings on record: supernatant 48 h, —: not detected.
Experiment [12] has as its system DR3. Briefly: DR3. The source says: (§1) Table printed on a drawing sheet, Figure 2
Where the first naming reader finds the target: head: DR3

Experiment [13] deals with DR7. In words: DR7.
Experiment [14] has as its system DR15. Briefly: DR15.
Experiment [15] deals with DRB3. Briefly: DRB3.
In experiment [16] the test system is DRB4. In words: DRB4.
Source text: as §1
Where the first naming reader finds the target: head: DRB4

Experiment [17] has as its system DRB5. In words: DRB5.
The test system of experiment [18] is DR11. Briefly: DR11.
Source text: as §1
Where the first naming reader finds the target: head: DR11

The subject of experiment [19] is DP401. Briefly: DP401.
Experiment [20] deals with DP402. In words: DP402.
The subject of experiment [21] is CD4+ T lymphocyte lines derived from a seronegative individual. In words: IFN-γ ELISPOT after in vitro immunization. Format: cell-based, human. The settings on record: after 4 restimulations; for response of line P014/C (T lymphocytes secreting IFN-γ): FIG. 5C. As for the experimental part:
The ability of the peptides having good affinity for the HLA II molecules to induce stimulation of specific T lymphocytes in vitro was evaluated using blood samples from individuals seronegative for HCV. This involves evaluating the ability to recruit CD4+ precursor lymphocytes although they are, in a naïve individual, at very low frequency, i.e. to carry out an immunization in vitro by means of these peptides.
Peripheral blood mononuclear cells (PBMCs) were separated on a Ficoll gradient. The PBMCs were then cultured in AIM V medium (Life Technologies) and incubated in flasks, in an incubator at 37° C. in the presence of 5% of CO2. After overnight incubation, the non-adherent cells were recovered and loaded onto an LS+column (Miltenyi), and the CD4+ T lymphocytes thus purified were then frozen. The adherent cells were incubated for 5 days in AIM V medium containing 1000 U/ml of GM-CSF and 1000 U/ml of IL-4, and the cells that had differentiated into dendritic cells were then cultured for 2 days in the presence of 1 μg/ml of LPS, 1000 U/ml of IL-4 and 1000 U/ml of GM-CSF, so as to induce their maturation.
The mature dendritic cells (100 000 cells/well) were then incubated with a mixture of peptides (10 μg of each peptide), for 5 hours at 37° C. The mature dendritic cells were subsequently washed and then incubated, in the presence of the CD4+ T lymphocytes (100 000 cells/well) thawed beforehand, in medium containing 1000 U/ml of IL-6 and 10 ng/ml of IL-12. After 7 days, the culture was restimulated a first time by means of mature dendritic cells that had been thawed and loaded with the mixture of peptides beforehand, in medium containing IL-2 (10 U/ml) and IL-7 (5 ng/ml). 7 days later, the culture was restimulated, in a similar manner, in a medium containing no IL-2. After two further stimulations, under the above conditions, the cells were assayed by ELISPOT, in the following way:
[…]. After washing with PBS buffer and then with PBS/0.05% Tween, 100 μl of biotin-conjugated anti-IFNγ secondary antibody (7-B6-1-biotin, Mabtech), diluted to 1 μg/ml in PBS containing 0.05% Tween 20 and 1% BSA, were added to each well. After incubation for one hour, the plates were washed again, and incubated with 100 μl/well of Extravidin-AKP (No. 2636, SIGMA), diluted to 1/5000 in PBS containing 0.05% Tween 20 and 1% BSA. The immunoenzymatic reaction was then visualized by means of the kit No. 170-6432 (Biorad).

Experiment [22] concerns DR4. Briefly: DR4.
For experiment [23], the system named is DR13. In words: DR13.
Source text: as §1
Where the first naming reader finds the target: head: DR13

The mark [24] stands for this setting: read-out: binds with good affinity to DR1.

Read-outs that look alike come from different tables or passages of the source.

As to `CC[C@H](C)[C@H](NC(=O)[C@H](CCC(=O)O)NC(=O)[C@H](CCCNC(=N)N)NC(=O)CN)C(=O)N[C@@H](CC(C)C)C(=O)N[C@@H](CC(C)C)C(=O)NCC(=O)N1CCC[C@H]1C(=O)N[C@@H](C)C(=O)N[C@@H](CC(=O)O)C(=O)NCC(=O)N[C@@H](CCSC)C(=O)N[C@H](C(=O)N[C@@H](CO)C(=O)N[C@@H](CCCCN)C(=O)NCC(=O)N[C@@H](Cc1c[nH]c2ccccc12)C(=O)N[C@@H](CCCNC(=N)N)C(=O)N[C@@H](CC(C)C)C(=O)N[C@@H](CC(C)C)C(=O)N[C@@H](C)C(=O)N1CCC[C@H]1C(=O)N[C@H](C(=O)N[C@H](C(=O)N[C@@H](C)C(=O)N[C@@H](Cc1ccc(O)cc1)C(=O)N[C@@H](C)C(=O)N[C@@H](CCC(N)=O)C(=O)N[C@@H](CCC(N)=O)C(=O)N[C@H](C(=O)N[C@@H](CCCNC(=N)N)C(=O)O)[C@@H](C)O)[C@@H](C)O)[C@@H](C)CC)C(C)C` [8N 1007-1037], the IC50 is 2 nM in [1] (competition with biotinylated tracer HA 306-318, read-out: IC50, binding to HLA-DR1); under 1000 nM in experiment [1] (setting [24]); under 1000 nM in experiment [2]; under 1000 nM in [3]; under 1000 nM in [4]; under 1000 nM in [5]. Moreover, the IC50 is under 1000 nM in [6]; under 1000 nM in experiment [7]; under 1000 nM in experiment [8]; under 1000 nM in experiment [9]; under 1000 nM in [10]; 200 nM in experiment [12]. Moreover, the IC50 amounted to 88 nM in experiment [13]; 30 nM in [14]; 15000 nM in [15]; 60 nM in [16]; 2 nM in experiment [17]; 1 nM in experiment [18]. Also, the IC50 was determined as 7200 nM in experiment [19] and 881 nM in experiment [20]. In experiment [1] (legend of FIG. 4), the “affinity for HLA-DR1 (in words)” value is “high affinity”. Besides, the figures for the IL10 in experiment [11] (patient 067) and in [11] (patient 078) were 43 pg/mL and 41 pg/mL, respectively.
Consider GIFRAAVCTRGVAKA [15N 1178-1192], for which, in experiment [21] (line P014/A, FIG. 5A), the “response of line P014/A (T lymphocytes secreting IFN-γ)” value is recorded as “responds”. Further, the “response of line P014/C (T lymphocytes secreting IFN-γ)” value in experiment [21] is “responds”.
In the case of `CC[C@H](C)[C@H](NC(=O)[C@H](CCC(N)=O)NC(=O)CNC(=O)CNC(=O)CNC(=O)[C@@H]1CCCN1C(=O)[C@H](Cc1ccccc1)NC(=O)[C@H](CCCCN)NC(=O)[C@@H](NC(=O)[C@H](CC(=O)O)NC(=O)[C@H](CCC(N)=O)NC(=O)[C@@H]1CCCN1)C(C)C)C(=O)N[C@H](C(=O)NCC(=O)NCC(=O)N[C@H](C(=O)N[C@@H](Cc1ccc(O)cc1)C(=O)N[C@@H](CC(C)C)C(=O)N[C@@H](CC(C)C)C(=O)N1CCC[C@H]1C(=O)N[C@@H](CCCNC(=N)N)C(=O)N[C@@H](CCCNC(=N)N)C(=O)NCC(=O)N1CCC[C@H]1C(=O)N[C@@H](CCCNC(=N)N)C(=O)N[C@@H](CC(C)C)C(=O)NCC(=O)N[C@H](C(=O)N[C@@H](CCCNC(=N)N)C(=O)O)C(C)C)C(C)C)C(C)C` [1C 19-47], the IC50 in experiment [1] (setting [24]), in [4], in experiment [5], in experiment [6], in experiment [7] and in experiment [9] was under 1000 nM throughout. The IC50 in experiment [10] was under 1000 nM; in experiment [12], over 100000 nM; in experiment [22], 70000 nM; in experiment [13], 483 nM; in experiment [23] it was 288 nM; in [14], 158 nM. For the same compound, the IC50 in experiment [15] was over 100000 nM; in experiment [16] it was 6000 nM; in [17], 9 nM; in experiment [18] it was 58 nM; in [19], 4520 nM.
As to VSKGWRLLAPITAYA [8N 1019-1033], the “response of line P014/B (T lymphocytes secreting IFN-γ)” value in experiment [21] (line P014/B, FIG. 5B) is “responds”.
Consider RLRAYMNTPGLPVAQ [28N 1538-1552], for which the “response of line P014/C (T lymphocytes secreting IFN-γ)” value in [21] was “responds”.
